Source: ChEMBL document CHEMBL1909046, “DrugMatrix in vitro pharmacology data”

Key:
Cytochrome P450 2D6 = Cytochrome P450 2D6 (Homo sapiens, UniProt P10635)
Cytochrome P450 3A4 = Cytochrome P450 3A4 (Homo sapiens, UniProt P08684)
Androgen receptor [1] = target: T1, Androgen receptor (Rattus norvegicus, UniProt P15207)
T1 sequence (P15207 whole entry): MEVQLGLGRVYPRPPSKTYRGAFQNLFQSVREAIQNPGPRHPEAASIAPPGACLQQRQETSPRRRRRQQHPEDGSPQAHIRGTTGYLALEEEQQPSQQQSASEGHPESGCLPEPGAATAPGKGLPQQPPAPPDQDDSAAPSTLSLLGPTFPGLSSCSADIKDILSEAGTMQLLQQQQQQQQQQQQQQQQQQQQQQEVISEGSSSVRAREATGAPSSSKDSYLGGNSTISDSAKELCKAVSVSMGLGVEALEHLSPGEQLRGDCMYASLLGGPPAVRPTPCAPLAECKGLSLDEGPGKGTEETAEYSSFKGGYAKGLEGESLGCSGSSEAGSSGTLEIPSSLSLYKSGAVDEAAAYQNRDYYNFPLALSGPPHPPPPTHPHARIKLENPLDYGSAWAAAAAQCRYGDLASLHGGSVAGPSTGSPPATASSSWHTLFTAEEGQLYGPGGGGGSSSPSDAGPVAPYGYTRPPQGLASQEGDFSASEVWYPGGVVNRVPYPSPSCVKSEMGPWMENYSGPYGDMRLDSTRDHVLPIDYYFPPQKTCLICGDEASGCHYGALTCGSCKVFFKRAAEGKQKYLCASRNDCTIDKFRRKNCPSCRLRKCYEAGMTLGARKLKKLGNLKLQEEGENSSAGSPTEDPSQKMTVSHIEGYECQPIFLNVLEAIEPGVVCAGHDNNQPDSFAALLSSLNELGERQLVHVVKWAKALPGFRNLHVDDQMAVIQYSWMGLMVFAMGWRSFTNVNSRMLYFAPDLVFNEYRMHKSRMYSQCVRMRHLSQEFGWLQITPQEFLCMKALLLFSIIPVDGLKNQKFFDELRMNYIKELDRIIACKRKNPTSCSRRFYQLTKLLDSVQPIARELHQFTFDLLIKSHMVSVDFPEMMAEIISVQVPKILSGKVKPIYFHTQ

Estrogen receptor beta = Estrogen receptor beta (Homo sapiens, UniProt Q92731); conditions: sf9
Glucocorticoid receptor [2] = target: T2, Glucocorticoid receptor (Homo sapiens, UniProt P04150); conditions: hela s3
T2 sequence (P04150 whole entry): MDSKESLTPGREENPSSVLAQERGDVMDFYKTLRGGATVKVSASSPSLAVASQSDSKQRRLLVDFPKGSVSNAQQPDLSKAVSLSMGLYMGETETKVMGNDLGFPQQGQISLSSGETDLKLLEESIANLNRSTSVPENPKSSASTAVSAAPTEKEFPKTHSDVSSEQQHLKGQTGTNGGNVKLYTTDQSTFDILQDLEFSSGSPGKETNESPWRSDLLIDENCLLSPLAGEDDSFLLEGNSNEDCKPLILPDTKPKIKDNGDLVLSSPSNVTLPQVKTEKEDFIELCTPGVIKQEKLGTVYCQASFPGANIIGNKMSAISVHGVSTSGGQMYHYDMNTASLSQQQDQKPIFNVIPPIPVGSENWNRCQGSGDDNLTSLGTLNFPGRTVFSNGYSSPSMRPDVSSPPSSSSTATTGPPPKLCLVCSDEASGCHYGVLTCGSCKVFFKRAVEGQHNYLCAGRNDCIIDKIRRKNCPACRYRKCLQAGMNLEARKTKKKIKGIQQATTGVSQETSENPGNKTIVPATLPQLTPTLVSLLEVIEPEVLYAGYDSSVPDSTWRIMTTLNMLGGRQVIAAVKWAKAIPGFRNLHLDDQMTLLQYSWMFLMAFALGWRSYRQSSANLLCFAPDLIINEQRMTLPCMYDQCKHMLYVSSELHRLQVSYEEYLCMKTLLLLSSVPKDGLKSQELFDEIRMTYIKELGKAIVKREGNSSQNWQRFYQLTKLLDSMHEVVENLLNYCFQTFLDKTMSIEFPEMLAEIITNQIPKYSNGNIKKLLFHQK

Glucocorticoid receptor [3] = target: T2, Glucocorticoid receptor; assay: biochemical
Androgen receptor [4] = target: T1, Androgen receptor; remark: listed apart in the source
Cytochrome P450 2C19 = Cytochrome P450 2C19 (Homo sapiens, UniProt P33261)
Cytochrome P450 2C9 = Cytochrome P450 2C9 (Homo sapiens, UniProt P11712)
Further: in other assays of this panel Not Active means under 50% inhibition at 10 µM.

Chain of Estrogen receptor beta (Q92731 whole entry): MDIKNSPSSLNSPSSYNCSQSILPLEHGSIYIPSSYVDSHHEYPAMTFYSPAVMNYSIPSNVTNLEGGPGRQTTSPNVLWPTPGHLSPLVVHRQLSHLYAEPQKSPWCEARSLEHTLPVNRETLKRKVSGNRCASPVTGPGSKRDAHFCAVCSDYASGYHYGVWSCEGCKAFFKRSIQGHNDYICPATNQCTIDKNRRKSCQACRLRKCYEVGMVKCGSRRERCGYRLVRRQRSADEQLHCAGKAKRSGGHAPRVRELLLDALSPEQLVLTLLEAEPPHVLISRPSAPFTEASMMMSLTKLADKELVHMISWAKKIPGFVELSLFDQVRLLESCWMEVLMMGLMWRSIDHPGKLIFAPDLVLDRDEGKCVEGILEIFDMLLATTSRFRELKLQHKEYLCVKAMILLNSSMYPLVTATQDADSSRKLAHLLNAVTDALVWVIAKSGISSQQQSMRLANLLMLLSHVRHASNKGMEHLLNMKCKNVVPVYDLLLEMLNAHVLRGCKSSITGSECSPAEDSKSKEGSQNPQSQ
Chain of Cytochrome P450 3A4 (P08684 whole entry): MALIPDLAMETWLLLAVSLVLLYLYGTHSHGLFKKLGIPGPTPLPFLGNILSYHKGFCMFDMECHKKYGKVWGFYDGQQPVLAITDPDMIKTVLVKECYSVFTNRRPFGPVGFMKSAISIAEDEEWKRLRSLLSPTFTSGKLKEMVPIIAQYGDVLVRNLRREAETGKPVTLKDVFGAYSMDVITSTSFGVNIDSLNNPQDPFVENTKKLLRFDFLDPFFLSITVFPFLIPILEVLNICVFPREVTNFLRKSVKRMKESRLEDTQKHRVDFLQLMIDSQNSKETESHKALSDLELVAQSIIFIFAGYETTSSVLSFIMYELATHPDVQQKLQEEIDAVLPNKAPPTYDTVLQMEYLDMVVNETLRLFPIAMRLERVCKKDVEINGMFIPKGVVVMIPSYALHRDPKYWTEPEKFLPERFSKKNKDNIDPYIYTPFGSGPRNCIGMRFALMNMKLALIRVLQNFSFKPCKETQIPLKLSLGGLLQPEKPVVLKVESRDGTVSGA
Chain of Cytochrome P450 2C9 (P11712 whole entry): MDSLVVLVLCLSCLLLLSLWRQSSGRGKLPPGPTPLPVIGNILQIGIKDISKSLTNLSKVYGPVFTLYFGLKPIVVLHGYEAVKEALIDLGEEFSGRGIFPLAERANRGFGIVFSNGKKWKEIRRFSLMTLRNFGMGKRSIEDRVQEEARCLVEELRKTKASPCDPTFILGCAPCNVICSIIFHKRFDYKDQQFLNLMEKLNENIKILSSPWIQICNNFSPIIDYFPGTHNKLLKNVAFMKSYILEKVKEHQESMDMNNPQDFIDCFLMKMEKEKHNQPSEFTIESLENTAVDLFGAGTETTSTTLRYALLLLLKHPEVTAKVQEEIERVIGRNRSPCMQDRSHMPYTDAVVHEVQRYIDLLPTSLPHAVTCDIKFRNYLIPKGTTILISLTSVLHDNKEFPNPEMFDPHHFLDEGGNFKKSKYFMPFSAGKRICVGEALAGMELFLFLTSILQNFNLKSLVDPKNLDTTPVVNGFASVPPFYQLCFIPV
Chain of Cytochrome P450 2C19 (P33261 whole entry): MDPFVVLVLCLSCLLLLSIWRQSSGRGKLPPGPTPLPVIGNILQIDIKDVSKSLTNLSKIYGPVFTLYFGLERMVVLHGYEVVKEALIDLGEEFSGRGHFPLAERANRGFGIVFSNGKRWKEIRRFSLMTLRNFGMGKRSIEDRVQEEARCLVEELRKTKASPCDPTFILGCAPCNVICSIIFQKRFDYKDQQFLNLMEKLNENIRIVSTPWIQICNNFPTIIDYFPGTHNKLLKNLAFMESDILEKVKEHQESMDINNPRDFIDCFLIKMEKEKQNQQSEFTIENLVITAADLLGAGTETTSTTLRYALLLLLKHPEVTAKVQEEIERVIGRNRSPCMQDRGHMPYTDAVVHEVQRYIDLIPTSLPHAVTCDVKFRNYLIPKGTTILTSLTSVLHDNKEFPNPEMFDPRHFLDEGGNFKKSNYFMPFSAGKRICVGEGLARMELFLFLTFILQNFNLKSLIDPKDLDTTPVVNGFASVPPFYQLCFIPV
Chain of Cytochrome P450 2D6 (P10635 whole entry): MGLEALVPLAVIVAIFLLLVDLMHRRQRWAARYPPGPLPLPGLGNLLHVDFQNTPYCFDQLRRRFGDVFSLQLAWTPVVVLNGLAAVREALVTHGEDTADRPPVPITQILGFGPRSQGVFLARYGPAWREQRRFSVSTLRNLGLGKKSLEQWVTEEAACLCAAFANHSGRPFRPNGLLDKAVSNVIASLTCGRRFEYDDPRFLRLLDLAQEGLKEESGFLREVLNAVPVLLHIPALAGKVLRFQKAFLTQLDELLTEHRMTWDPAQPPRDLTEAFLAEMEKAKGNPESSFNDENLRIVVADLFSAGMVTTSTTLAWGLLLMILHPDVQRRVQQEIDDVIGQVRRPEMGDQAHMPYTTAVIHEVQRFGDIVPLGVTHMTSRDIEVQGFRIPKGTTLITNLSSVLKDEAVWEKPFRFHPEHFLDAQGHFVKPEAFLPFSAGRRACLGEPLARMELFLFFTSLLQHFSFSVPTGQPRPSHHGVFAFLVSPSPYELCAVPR

SMILES | IC50 (Cytochrome P450 2D6) | IC50 (Cytochrome P450 3A4) | IC50 (Androgen receptor [1]) | IC50 (Estrogen receptor beta) | IC50 (Glucocorticoid receptor [2]) | IC50 (Glucocorticoid receptor [3]) | Ki (Glucocorticoid receptor [3]) | IC50 (Androgen receptor [4]) | Ki (Androgen receptor [4]) | IC50 (Cytochrome P450 2C19) | IC50 (Cytochrome P450 2C9)
CC[C@H](C)[C@@H](CO[C@@H](Cc1ccccc1)C(=O)N[C@@H](CCS(C)(=O)=O)C(=O)OC(C)C)NC[C@@H](N)CS | 700 nM | 3 µM | Not Active | Not Active | Not Active | – | – | – | – | – | –
CC(=O)O[C@]1(C(C)=O)CC[C@H]2[C@@H]3C[C@H](C)C4=CC(=O)CC[C@]4(C)[C@H]3CC[C@@]21C [MEDROXYPROGESTERONE ACETATE] | – | – | – | – | – | 19 nM | 8.64 nM | – | – | – | –
CCOC(=O)C1=C(C)NC(C)=C(C(=O)OCC)C1c1ccccc1/C=C/C(=O)OC(C)(C)C [LACIDIPINE] | – | – | – | Not Active | Not Active | – | – | 3.92 µM | 2610 nM | 2000 nM | 2000 nM
